From ChEMBL document CHEMBL1201862, “PubChem BioAssay data set” (2004)
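How tested: cells in 96-well plates exposed to compound for 48 hours at five concentrations. GI50 is the concentration that inhibits growth by half.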 Calls of active or inactive are those of the source. Rule as the data show it: active = GI50 up to about 1.1 µM and inactive = higher.

Legend:
Experiment in all cases: NCI tumour cell line growth inhibition, 48 h
UACC-257 = system: UACC-257
SK-MEL-2 = system: SK-MEL-2
OVCAR-5 = system: OVCAR-5
EKVX = system: EKVX
NCI/ADR-RES = system: NCI/ADR-RES
PC-3 = system: PC-3
MOLT-4 = system: MOLT-4
Hs-578T = system: Hs-578T
MDA-MB-231 = system: MDA-MB-231
MDA-MB-435 = system: MDA-MB-435
A549 = system: A549
HT-29 = system: HT-29
K562 = system: K562
OVCAR-3 = system: OVCAR-3
NCI-H226 = system: NCI-H226
CCRF-CEM = system: CCRF-CEM
NCI-H23 = system: NCI-H23
HCC 2998 = system: HCC 2998
MDA-N = system: MDA-N
RXF 393 = system: RXF 393

| Structure (SMILES) | GI50 (UACC-257) | GI50 (SK-MEL-2) | GI50 (OVCAR-5) | GI50 (EKVX) | GI50 (NCI/ADR-RES) | GI50 (PC-3) | GI50 (MOLT-4) | GI50 (Hs-578T) | GI50 (MDA-MB-231) | GI50 (MDA-MB-435) | GI50 (A549) | GI50 (HT-29) | GI50 (K562) | GI50 (OVCAR-3) | GI50 (NCI-H226) | GI50 (CCRF-CEM) | GI50 (NCI-H23) | GI50 (HCC 2998) | GI50 (MDA-N) | GI50 (RXF 393) |
| --- | --- | --- | --- | --- | --- | --- | --- | --- | --- | --- | --- | --- | --- | --- | --- | --- | --- | --- | --- | --- |
| Nc1nc(N)c2ncn(Cc3ccccc3CCl)c2n1 | > 100 µM (inactive) | > 100 µM (inactive) | > 100 µM (inactive) | > 100 µM (inactive) | > 100 µM (inactive) | > 100 µM (inactive) | > 100 µM (inactive) | > 100 µM (inactive) | > 100 µM (inactive) | > 100 µM (inactive) | > 100 µM (inactive) | > 100 µM (inactive) | 50.4 µM (inactive) | > 100 µM (inactive) | > 100 µM (inactive) | 88.1 µM (inactive) | > 100 µM (inactive) |  |  |  |
| O=c1c(NO)c([N+](=O)[O-])cnn1-c1ccccc1 | 6.37 µM (inactive) | 14.9 µM (inactive) | 7.28 µM (inactive) | 11.6 µM (inactive) |  | 1.55 µM (inactive) | 2.39 µM (inactive) | < 0.01 µM (active) |  | 1.88 µM (inactive) | 18.5 µM (inactive) | 2.6 µM (inactive) | 0.908 µM (active) | 2.98 µM (inactive) | 7.87 µM (inactive) | 0.971 µM (active) | 6.55 µM (inactive) | 5.47 µM (inactive) | 2.29 µM (inactive) | 5.92 µM (inactive) |
| O=C(Nc1ccccc1)C(=O)C(C(=O)c1ccccc1)C(c1ccccc1)c1ccccc1 (stereo not drawn) | > 10 µM (inactive) |  |  | > 10 µM (inactive) |  | > 10 µM (inactive) | > 10 µM (inactive) |  | > 10 µM (inactive) | > 10 µM (inactive) | > 10 µM (inactive) | > 10 µM (inactive) | > 10 µM (inactive) |  |  | > 10 µM (inactive) | > 10 µM (inactive) | > 10 µM (inactive) | > 10 µM (inactive) | > 10 µM (inactive) |
| CC(=O)O[C@H]1/C(=C/c2ccncc2)C[C@H]2[C@@H]3CC=C4C[C@@H](N5CCCC5)CC[C@]4(C)[C@H]3CC[C@]12C | 2.34 µM (inactive) | 15.5 µM (inactive) | 13.2 µM (inactive) | 13.9 µM (inactive) | 8.95 µM (inactive) | 11.7 µM (inactive) | 11.5 µM (inactive) | 16.6 µM (inactive) | 19.1 µM (inactive) | 12.1 µM (inactive) | 11.8 µM (inactive) | 1.49 µM (inactive) | 2.74 µM (inactive) | 21.8 µM (inactive) | 19.3 µM (inactive) | 15.2 µM (inactive) | 15.1 µM (inactive) | 12.2 µM (inactive) |  | 6.9 µM (inactive) |
